Usually Kd stands for the concentration at which binding is half-saturated.

The record followed here is paper PMC10279719 (Nature Communications, 2023).

Assay [1] has as its target T1, 14-3-3γ (Homo sapiens, UniProt P61981).
T1 construct: 14-3-3γ (UniProt P61981-1; residues 1–247); 8-His tag with TEV protease cleavage site (N); made in house; host or cells: E. coli C41 (DE3)
T1 sequence (P61981 1-247): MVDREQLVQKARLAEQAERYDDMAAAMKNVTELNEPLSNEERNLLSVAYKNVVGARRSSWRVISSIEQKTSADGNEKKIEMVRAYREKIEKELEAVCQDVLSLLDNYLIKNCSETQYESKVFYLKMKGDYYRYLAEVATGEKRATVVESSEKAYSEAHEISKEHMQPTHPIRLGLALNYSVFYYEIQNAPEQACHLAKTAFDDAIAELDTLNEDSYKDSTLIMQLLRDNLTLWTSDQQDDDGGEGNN
The experiment in a line: SPR, PEAK peptides binding to immobilised 14-3-3γ. To be noted: peptide analyte over amine-coupled 14-3-3γ (CM5), Biacore S200, HBS-TP pH 7.4, 20 °C, steady-state 1:1 fit, mean ± S.E.M. As for the experimental part: Purified […]3 was diluted to 5 μg ml^-1 in 10 mM sodium acetate pH 4.0 and amine coupled at 25 °C to a Series S CM5 sensor chip, in HBS-N running buffer (20 mM HEPES pH 7.4, 150 mM NaCl) to a final immobilization level of 1100-1400 response units (RU), followed by surface deactivation using 1 M ethanolamine. A blank activation/deactivation was used for the reference surface. […] Samples were injected in a multi-cycle run (flow rate 30 μl min^-1, contact time of 60 s, dissociation 120 s) without regeneration. Sensorgrams were double referenced, and steady-state binding data fitted using a 1:1 binding model using Biacore S200 Evaluation Software (Cytiva, v. 1.1). […] Representative sensorgrams and fitted dissociation constant (KD) values, depicted as mean ± S.E.M.
(In general: In SPR one partner is held on a chip, and binding of the other changes the refractive index at the surface.)

Assay [2] addresses T1, 14-3-3γ. Description: ITC, 14-3-3γ titrated into PEAK3 tandem peptides. It is filed as binding. The conditions noted are these: binary, 14-3-3γ (syringe) into peptide (20 µM, cell), 25 °C, 20 mM HEPES pH 7.4, 150 mM NaCl, 1 mM TCEP, single-site fit, mean ± S.E.M. of N = 4 (N = 1 for non-phosphorylated peptide). How it is done: ITC binding experiments were conducted using a MicroCal iTC200 instrument (Malvern Instruments). Titrations were conducted at 25 °C in reverse mode (peptide in cell, protein in syringe) and consisted of 19 injections of 2 μl […] at a rate of 2 s μl^−1 at 90 s time intervals, whilst stirring at 1000 rpm. An initial injection of 0.4 μl protein was made and discarded during data analysis. Proteins (14-3-3ɣ or CrkII^NSH3) were first dialyzed overnight at 4 °C into ITC buffer (20 mM HEPES pH 7.4, 150 mM NaCl, 1 mM TCEP), filtered and degassed under vacuum. […] Following the first titration, excess solution was removed from the cell, and the syringe was washed and dried. […] All data were fitted to a single binding site model to obtain the stoichiometry (N), dissociation constant (KD) and the enthalpy of binding (ΔH), using MicroCal PEAQ-ITC Analysis software (v.1.41).

With `CC[C@H](C)[C@H](NC(=O)[C@H](CCCCN)NC(=O)[C@H](CCCCN)NC(=O)[C@@H]1CCCN1C(=O)[C@H](CC(C)C)NC(=O)[C@@H]1CCCN1C(=O)[C@@H]1CCCN1C(=O)[C@@H]1CCCN1C(=O)[C@H](CC(C)C)NC(=O)[C@@H]1CCCN1C(C)=O)C(=O)N[C@@H](CC(C)C)C(=O)N[C@H](C(=O)N[C@@H](CCCNC(=N)N)C(=O)N[C@H](C(=O)N[C@@H](CCC(N)=O)C(=O)N[C@@H](CO)C(=O)N[C@@H](CC(C)C)C(=O)N1CCC[C@H]1C(=O)N[C@H](C(=O)N[C@@H](CCCNC(=N)N)C(=O)N[C@@H](CCCNC(=N)N)C(N)=O)[C@@H](C)O)[C@@H](C)O)[C@@H](C)O` (single isomer, unassigned) [PEAK3^tandem], the “SPR KD, 14-3-3γ (gamma)” value on 14-3-3γ [1] is “no appreciable binding”; at 14-3-3γ [1] (54–74), “No binding”. In addition, at 14-3-3γ [1] (read-out: SPR KD, 14-3-3γ (gamma)), the dissociation constant (Kd) was > 100 µM. Moreover, the “ITC KD, 14-3-3γ” value on 14-3-3γ [2] is reported as “no appreciable binding”; at 14-3-3γ [2] (54–74) it was “No binding”; on 14-3-3γ [2] (listed as PEAK3 tandem), “no binding”.
